# In patent US20120245137A1 (Zalicus Pharmaceuticals Ltd., priority 2009, published 2012):
# Molecular target: human α1G T-type channels (Homo sapiens, UniProt O43497)
# Assay: T-type calcium channel block, whole cell patch clamp, α1G
# Format: cell-based
# Settings: HEK cells stably expressing human α1G; mainly non-inactivated protocol; values above 10,000 nM represented as 10000
# Protocol: T-type calcium channel blocking activity was assayed in human embryonic kidneycells, HEK 293 (Invitrogen), stably transfected with the T-type calcium channel subunits. Briefly, cells were cultured in Dulbecco's modified eagle medium (DMEM) supplemented with 10% fetal bovine serum, 200 U/ml penicillin, and 0.2 mg/mL streptomycin at 37° C. with 5% CO2. At 85% confluency, cells were split with 0.25% trypsin/1 mM EDTA and plated at 10% confluency on glass coverslips. At 12 hours, the medium was replaced, and the cells stably transfected using a standard calcium phosphate protocol and the appropriate calcium channel cDNA's. Fresh DMEM was supplied, and the cells transferred to 28° C./5% CO2.
# Standard patch-clamp techniques were employed to identify blockers of T-type currents. Briefly, previously described HEK cell lines stably expressing human α1G, α1H, and α1I T-type channels were used for all the recordings (passage #: 4-20, 37° C., 5% CO2). Whole cell patch clamp experiments were performed using an Axopatch 200B amplifier (Axon Instruments, Burlingame, Calif.) linked to a personal computer equipped with pCLAMP software. Data were analyzed using Clampfit (Axon Instruments) and SigmaPlot 4.0 (Jandel Scientific). To obtain T-type currents, plastic dishes containing semi-confluent cells were positioned on the stage of a ZEISS AXIOVERT S100 microscope after replacing the culture medium with external solution (Table 2). Whole-cell patches were obtained using pipettes (borosilicate glass with filament, O.D.: 1.5 mm, I.D.: 0.86 mm, 10 cm length), fabricated on a SUTTER P-97 puller with resistance values of ˜5 MΩ (Table 3).
# T-type currents were reliably obtained by using two voltage protocols: • “non-inactivating,” and • “inactivation.”
# Test compounds were dissolved in external solution, 0.1-0.01% DMSO. After ˜10 minutes rest, they were applied by gravity close to the cell using a WPI microfil tubing. The “non-inactivated” pre-pulse was used to examine the resting block of a compound. The “inactivated” protocol was employed to study voltage-dependent block.
row,IC50,Compound
1,710 nM,"Cc1cccc(C(=O)NCC(C)(C)S(=O)(=O)c2cccc(C(F)(F)F)c2)n1 [Compound 485, 6-methyl-N-(2-methyl-2-(3-(trifluoromethyl)phenylsulfonyl)propyl) picolinamide]"
2,680 nM,CC(C)(CNS(=O)(=O)c1cccc2nonc12)S(=O)(=O)c1cccc(C(F)(F)F)c1 [Compound 493]
3,520 nM,"CC(C)(CNS(=O)(=O)c1ccc(S(C)(=O)=O)cc1)S(=O)(=O)c1cccc(C(F)(F)F)c1 [Compound 497, N-(2-methyl-2-(3-(trifluoromethyl)phenylsulfonyl)propyl)-4-(methylsulfonyl) benzenesulfonamide]"
4,850 nM,"CN(CCC(C)(C)S(=O)(=O)c1cccc(C(F)(F)F)c1)C(=O)c1ccc(C(F)(F)F)cc1S(C)(=O)=O [Compound 508, N-methyl-N-(3-methyl-3-(3-(trifluoromethyl)phenylsulfonyl)butyl)-2-(methylsulfonyl)-4-(trifluoromethyl)benzamide]"
5,650 nM,"CN(CCC(C)(C)S(=O)(=O)c1cccc(C(F)(F)F)c1)C(=O)c1cc(C(F)(F)F)nn1C [Compound 509, N,1-dimethyl-N-(3-methyl-3-(3-(trifluoromethyl)phenylsulfonyl)butyl)-3-(trifluoromethyl)-1H-pyrazole-5-carboxamide]"
6,960 nM,"CN(CCC(C)(C)S(=O)(=O)c1cccc(C(F)(F)F)c1)C(=O)c1ccc(C(F)(F)F)nc1 [Compound 511, N-methyl-N-(3-methyl-3-(3-(trifluoromethyl)phenylsulfonyl)butyl)-6-(trifluoromethyl)nicotinamide]"
7,610 nM,"CN(CCC(C)(C)S(=O)(=O)c1cccc(C(F)(F)F)c1)C(=O)c1ccc(C(F)(F)F)cn1 [Compound 515, N-methyl-N-(3-methyl-3-(3-(trifluoromethyl)phenylsulfonyl)bulyl)-5-(trifluoromethyl)picolinamide]"
8,940 nM,"CC(C)(CCNC(=O)c1cc(S(C)(=O)=O)ccc1Cl)S(=O)(=O)c1cccc(C(F)(F)F)c1 [Compound 530, 2-chloro-N-(3-methyl-3-(3-(trifluoromethyl)phenylsulfonyl)butyl)-5-(methylsulfonyl)benzamide]"
9,830 nM,"CC(C)(CCNC(=O)c1ccnc(C(F)(F)F)n1)S(=O)(=O)c1cc(F)cc(C(F)(F)F)c1 [Compound 534, N-(3-(3-fluoro-5-(trifluoromethyl)phenylsulfonyl)-3-methylbutyl)-2-(trifluoromethyl)pyrimidine-4-carboxamide]"

# More lines, now with the values behind:
row,Compound,IC50
1,"4-(trifluoromethyl)-N-((1R,4R)-4- ((3- (trifluoromethyl)phenylsulfonyl) methyl)cyclohexyl)picolinamide [Compound 103]",> 10000 nM
2,"Cn1nc(C(F)(F)F)cc1C(=O)NCC1(C)CCC(F)(S(=O)(=O)c2cccc(C(F)(F)F)c2)CC1 (stereo not drawn) [Compound 151, N-((4-fluoro-1-methyl-4-(3-(trifluoromethyl)phenylsulfonyl)cyclohexyl)methyl)-l-methyl-3-(trifluoromethyl)-1H-pyrazole-5-carboxamide]",2900 nM
3,"CC1(CNC(=O)c2ccc(C(F)(F)F)cn2)CCC(F)(S(=O)(=O)c2cccc(C(F)(F)F)c2)CC1 (stereo not shown) [Compound 152, N-((4-fluoro-1-methyl-4-(3-(trifluoromethyl)phenylsulfonyl)cyclohexyl)methyl)-5-(trifluoromethyl)picolinamide]",3600 nM

# Molecular target: N-type calcium channel subunits (α1B, α2δ, and β3a) (Homo sapiens, UniProt Q00975)
# Assay: Block of Cav2.2 channel, whole cell voltage clamp, manual and PatchXpress
# Format: cell-based
# Settings: Table 5; table follows Assay Example 3 (whole cell voltage clamp / PatchXpress); assay not given
# Method in brief: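 Percent block taken as current amplitude ratio with versus without compound, applied in rising doses; IC50 fitted where one cell received multiple doses. Protocol: 50 ms pulses to +20 mV at 0.067 Hz from […] or −90 mV holding; P/n leak subtraction, no junction-potential correction; manual and PatchXpress recordings.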
# N-type calcium channel subunits (α1B, α2δ, and β3a), sequence (Q00975 whole entry): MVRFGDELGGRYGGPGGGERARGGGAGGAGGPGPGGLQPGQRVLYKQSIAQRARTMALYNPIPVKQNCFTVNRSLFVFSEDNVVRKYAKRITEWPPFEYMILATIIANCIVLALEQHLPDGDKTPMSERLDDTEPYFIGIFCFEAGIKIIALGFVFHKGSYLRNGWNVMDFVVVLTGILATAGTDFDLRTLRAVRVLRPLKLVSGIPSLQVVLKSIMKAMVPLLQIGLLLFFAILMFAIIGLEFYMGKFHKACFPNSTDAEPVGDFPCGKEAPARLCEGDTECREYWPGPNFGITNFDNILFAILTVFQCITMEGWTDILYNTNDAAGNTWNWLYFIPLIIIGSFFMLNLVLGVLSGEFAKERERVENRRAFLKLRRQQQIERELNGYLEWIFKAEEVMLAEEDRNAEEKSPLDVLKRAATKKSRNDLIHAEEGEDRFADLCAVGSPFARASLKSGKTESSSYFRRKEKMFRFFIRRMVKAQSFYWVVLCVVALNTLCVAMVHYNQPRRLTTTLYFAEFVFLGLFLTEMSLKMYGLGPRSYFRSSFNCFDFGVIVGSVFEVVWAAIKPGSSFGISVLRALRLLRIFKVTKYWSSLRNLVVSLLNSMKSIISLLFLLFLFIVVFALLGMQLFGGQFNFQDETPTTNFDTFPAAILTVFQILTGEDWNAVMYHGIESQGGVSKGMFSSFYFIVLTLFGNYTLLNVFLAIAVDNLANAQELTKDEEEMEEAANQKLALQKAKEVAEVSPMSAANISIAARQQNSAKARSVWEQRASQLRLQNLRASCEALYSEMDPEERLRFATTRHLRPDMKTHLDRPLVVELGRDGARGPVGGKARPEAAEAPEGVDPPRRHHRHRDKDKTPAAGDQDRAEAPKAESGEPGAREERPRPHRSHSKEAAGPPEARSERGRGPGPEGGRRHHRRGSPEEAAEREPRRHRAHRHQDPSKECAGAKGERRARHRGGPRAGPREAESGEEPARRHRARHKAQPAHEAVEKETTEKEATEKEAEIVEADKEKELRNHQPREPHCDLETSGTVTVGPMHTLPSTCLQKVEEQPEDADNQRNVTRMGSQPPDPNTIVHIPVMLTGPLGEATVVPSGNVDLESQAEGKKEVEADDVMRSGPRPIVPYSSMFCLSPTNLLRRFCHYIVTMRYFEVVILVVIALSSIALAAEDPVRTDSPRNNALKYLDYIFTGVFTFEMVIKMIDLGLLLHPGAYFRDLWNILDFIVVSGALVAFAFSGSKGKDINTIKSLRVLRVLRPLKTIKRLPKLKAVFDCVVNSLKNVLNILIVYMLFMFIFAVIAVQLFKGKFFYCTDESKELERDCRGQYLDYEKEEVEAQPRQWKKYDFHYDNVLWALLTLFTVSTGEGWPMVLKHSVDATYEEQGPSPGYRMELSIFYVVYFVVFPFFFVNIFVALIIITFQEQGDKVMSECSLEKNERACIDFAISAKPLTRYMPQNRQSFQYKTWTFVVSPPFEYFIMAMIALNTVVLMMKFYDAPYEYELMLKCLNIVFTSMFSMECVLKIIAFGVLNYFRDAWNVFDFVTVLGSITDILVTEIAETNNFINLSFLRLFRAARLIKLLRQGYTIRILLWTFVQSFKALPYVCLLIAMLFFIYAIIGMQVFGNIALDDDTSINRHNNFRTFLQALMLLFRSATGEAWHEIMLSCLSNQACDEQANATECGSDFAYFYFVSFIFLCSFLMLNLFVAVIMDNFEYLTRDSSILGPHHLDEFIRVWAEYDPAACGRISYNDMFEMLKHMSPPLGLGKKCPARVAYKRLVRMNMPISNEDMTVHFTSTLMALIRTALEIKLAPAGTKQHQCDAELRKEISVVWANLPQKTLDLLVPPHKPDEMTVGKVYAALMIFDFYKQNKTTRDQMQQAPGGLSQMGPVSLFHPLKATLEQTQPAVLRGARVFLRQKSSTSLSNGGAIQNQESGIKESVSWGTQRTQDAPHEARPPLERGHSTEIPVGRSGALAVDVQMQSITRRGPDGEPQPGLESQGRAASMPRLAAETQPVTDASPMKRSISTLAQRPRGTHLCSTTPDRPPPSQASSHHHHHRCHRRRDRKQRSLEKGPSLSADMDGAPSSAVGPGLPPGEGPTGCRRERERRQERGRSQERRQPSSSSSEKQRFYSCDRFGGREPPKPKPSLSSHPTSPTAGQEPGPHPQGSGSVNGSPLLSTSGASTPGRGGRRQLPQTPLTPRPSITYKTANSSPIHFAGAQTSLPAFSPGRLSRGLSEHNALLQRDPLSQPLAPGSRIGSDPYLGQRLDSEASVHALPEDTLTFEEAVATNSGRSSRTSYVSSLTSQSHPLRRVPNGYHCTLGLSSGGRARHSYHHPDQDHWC
# N-type calcium channel subunits (α1B, α2δ, and β3a), sequence (P54289 25-1103 partner): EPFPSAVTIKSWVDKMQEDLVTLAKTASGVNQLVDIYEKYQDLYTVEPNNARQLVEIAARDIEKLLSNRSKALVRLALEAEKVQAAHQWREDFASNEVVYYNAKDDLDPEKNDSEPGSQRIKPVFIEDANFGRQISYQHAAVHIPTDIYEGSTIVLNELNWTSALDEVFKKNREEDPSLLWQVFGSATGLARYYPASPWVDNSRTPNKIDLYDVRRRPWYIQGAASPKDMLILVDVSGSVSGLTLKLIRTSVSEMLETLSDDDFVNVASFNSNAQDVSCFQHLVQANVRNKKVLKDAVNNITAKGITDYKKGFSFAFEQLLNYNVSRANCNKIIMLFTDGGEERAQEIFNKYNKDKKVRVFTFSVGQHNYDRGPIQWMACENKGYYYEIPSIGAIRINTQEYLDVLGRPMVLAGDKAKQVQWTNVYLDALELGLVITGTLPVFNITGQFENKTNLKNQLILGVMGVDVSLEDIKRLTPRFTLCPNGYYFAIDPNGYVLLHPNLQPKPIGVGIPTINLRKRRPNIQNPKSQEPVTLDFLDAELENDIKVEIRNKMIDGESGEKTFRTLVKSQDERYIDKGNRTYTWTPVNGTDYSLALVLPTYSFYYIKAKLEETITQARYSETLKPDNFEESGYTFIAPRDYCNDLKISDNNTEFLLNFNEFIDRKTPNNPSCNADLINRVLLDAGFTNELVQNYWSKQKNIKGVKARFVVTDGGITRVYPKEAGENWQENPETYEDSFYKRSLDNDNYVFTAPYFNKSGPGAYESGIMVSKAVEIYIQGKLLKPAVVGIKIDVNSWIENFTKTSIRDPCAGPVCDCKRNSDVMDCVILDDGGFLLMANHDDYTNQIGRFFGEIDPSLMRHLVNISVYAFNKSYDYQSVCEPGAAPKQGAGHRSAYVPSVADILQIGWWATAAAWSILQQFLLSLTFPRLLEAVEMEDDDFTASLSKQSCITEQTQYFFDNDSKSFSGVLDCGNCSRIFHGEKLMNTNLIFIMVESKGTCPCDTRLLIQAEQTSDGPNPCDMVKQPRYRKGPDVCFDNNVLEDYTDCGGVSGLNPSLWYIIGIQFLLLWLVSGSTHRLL
# N-type calcium channel subunits (α1B, α2δ, and β3a), sequence (P54284 whole entry partner): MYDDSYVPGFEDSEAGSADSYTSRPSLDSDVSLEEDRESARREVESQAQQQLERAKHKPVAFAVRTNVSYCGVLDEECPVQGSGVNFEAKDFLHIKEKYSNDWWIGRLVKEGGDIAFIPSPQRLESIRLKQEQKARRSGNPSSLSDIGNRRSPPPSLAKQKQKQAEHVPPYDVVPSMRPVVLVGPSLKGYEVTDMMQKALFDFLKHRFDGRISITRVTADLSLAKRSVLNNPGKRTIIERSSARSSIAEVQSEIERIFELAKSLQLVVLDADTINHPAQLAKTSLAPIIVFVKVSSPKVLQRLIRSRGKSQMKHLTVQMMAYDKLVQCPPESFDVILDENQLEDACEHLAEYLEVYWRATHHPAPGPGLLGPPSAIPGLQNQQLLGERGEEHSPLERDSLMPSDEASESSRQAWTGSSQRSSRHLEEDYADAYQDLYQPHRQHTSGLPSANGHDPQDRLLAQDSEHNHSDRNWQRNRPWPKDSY
row,IC50,Compound
1,580 nM,"Cn1nc(C(F)(F)F)cc1C(=O)NCC1(C)CCC(F)(S(=O)(=O)c2cccc(C(F)(F)F)c2)CC1 (stereo not drawn) [Compound 151, N-((4-fluoro-1-methyl-4-(3-(trifluoromethyl)phenylsulfonyl)cyclohexyl)methyl)-l-methyl-3-(trifluoromethyl)-1H-pyrazole-5-carboxamide]"
2,550 nM,"CC1(CNC(=O)c2ccc(C(F)(F)F)cn2)CCC(F)(S(=O)(=O)c2cccc(C(F)(F)F)c2)CC1 (stereo not shown) [Compound 152, N-((4-fluoro-1-methyl-4-(3-(trifluoromethyl)phenylsulfonyl)cyclohexyl)methyl)-5-(trifluoromethyl)picolinamide]"
3,1540 nM,"O=C(Nc1ccc(Oc2ccc(F)cc2)cc1)[C@H]1C[C@H](S(=O)(=O)c2cccc(C(F)(F)F)c2)C1 [Compound 406, (1R,3R)-N-(4-(4-fluorophenoxy)phenyl)-3-(3-(trifluoromethyl)phenylsulfonyl)cyclobutane carboxamide]"
4,1360 nM,"O=C(Nc1ncccc1C(F)(F)F)[C@H]1C[C@@H](S(=O)(=O)c2cccc(C(F)(F)F)c2)C1 [Compound 414, (1S,3S)-3-(3-(trifluoromethyl)phenylsulfonyl)-N-(3-(trifluoromethyl)pyridin-2-yl)cyclobutanecarboxamide]"
5,5580 nM,"Cc1nn(C)c(C)c1S(=O)(=O)NC[C@H]1C[C@H](S(=O)(=O)c2cccc(C(F)(F)F)c2)C1 [Compound 421, 1,3,5-trimethyl-N-(((1R,3R)-3-(3-(trifluoromethyl)phenylsulfonyl)cyclobutyl)methyl)-1H-pyrazole-4-sulfonamide]"
6,> 10000 nM,"O=C(N[C@H]1C[C@@H](S(=O)(=O)c2cccc(C(F)(F)F)c2)C1)c1ccc(C(F)(F)F)nc1 [Compound 430, 6-(trifluoromethyl)-N-((1S,3S)-3-(3-(triffuoromethyl)phenylsulfonyl)cyclobutyl) nicotinamide]"
7,1470 nM,"CC([C@H]1C[C@H](NC(=O)c2ncc(C(F)(F)F)cc2S(C)(=O)=O)C1)S(=O)(=O)c1cccc(C(F)(F)F)c1 (stereo partly drawn) [Compound 435, 3-(methylsulfonyl)-5-(trifluoromethyl)-N-((1R,3R)-3-((R)-1-(3-(trifluoromethyl)phenylsulfonyl)ethyl)cyclobutyl) picolinamide]"
8,630 nM,"CC(C)([C@H]1C[C@H](NC(=O)c2ncc(C(F)(F)F)cc2S(C)(=O)=O)C1)S(=O)(=O)c1cccc(C(F)(F)F)c1 [Compound 436, 3-(methylsulfonyl)-5-(trifluoromethyl)-N-((1R,3R)-3-(2-(3-(trifluoromethyl)phenylsulfonyl)propan-2-yl)cyclobutyl)picolinamide]"
9,720 nM,"CC(C)([C@H]1C[C@H](NC(=O)c2cnc(C(F)(F)F)nc2)C1)S(=O)(=O)c1cccc(C(F)(F)F)c1 [Compound 437, 2-(trifluoromethyl)-N-((1R,3R)-3-(2-(3-(trifluoromethyl)phenylsulfonyl)propan-2-yl)cyclobutyl)pyrimidine-5-carboxamide]"
10,400 nM,"CC(C)([C@H]1C[C@H](NC(=O)c2ccc(C(F)(F)F)cc2S(C)(=O)=O)C1)S(=O)(=O)c1cccc(C(F)(F)F)c1 [Compound 439, 2-(methylsulfonyl)-4-(trifluoromethyl)-N-((1R,3R)-3-(2-(3-(tritluoromethyl)phenylsulfonyl)propan-2-yl)cyclobutyl)benzamide]"
11,80 nM,"CC(C)([C@H]1C[C@H](NC(=O)c2ccc(F)c(C(F)(F)F)c2)C1)S(=O)(=O)c1cccc(C(F)(F)F)c1 [Compound 440, 4-fluoro-3-(trifluoromethyl)-N-((1R,3R)-3-(2-(3-(trifluoromethyl)phenylsulfonyl)propan-2-yl)cyclobutyl)benzamide]"
12,80 nM,"CC(C)([C@H]1C[C@H](NC(=O)c2ccc(F)c(Cl)c2)C1)S(=O)(=O)c1cccc(C(F)(F)F)c1 [Compound 441, 3-chloro-4-fluoro-N-((1R,3R)-3-(2-(3-(trifluoromethyl)phenylsulfonyl)propan-2-yl)cyclobutyl)benzamide]"
13,440 nM,"O=S(=O)(c1cccc(C(F)(F)F)c1)[C@H]1C[C@H](c2c[nH]c(-c3ccc(C(F)(F)F)cc3)n2)C1 [Compound 443, 2-(4-(trifluoromethyl)phenyl)-4-((1R,3R)-3-(3-(trifluoromethyl)phenylsulfonyI)cyclobutyl)-1H-imidazole]"
14,290 nM,"O=S(=O)(c1cccc(C(F)(F)F)c1)[C@H]1C[C@H](c2c[nH]c(-c3ccc(OC(F)(F)F)cc3)n2)C1 [Compound 444, 2-(4-(trifluoromethoxy)phenyl)-4-((1R,3R)-3-(3-(trifluoromethyl)phenylsulfonyl)cyclobutyl)-1H-imidazole]"
15,200 nM,"O=S(=O)(c1cccc(C(F)(F)F)c1)[C@H]1C[C@H](c2c[nH]c(-c3ccc(C(F)(F)F)nc3)n2)C1 [Compound 445, 2-(trifluoromethyl)-5-(4-((1R,3R)-3-(3-(trifluoromethyl)phenylsulfonyl)cyclobutyl)-1H-imidazol-2-yl)pyridine]"
16,810 nM,"O=S(=O)(c1cccc(C(F)(F)F)c1)[C@H]1C[C@@H](c2c[nH]c(-c3ccc(C(F)(F)F)nc3)n2)C1 [Compound 446, 2-(trifluoromethyl)-5-(4-((1S,3S)-3-(3-(trifluoromethyl)phenylsulfonyl)cyclobutyl)-1H-imidazoI-2-yl)pyridine]"
17,1830 nM,"CC(C)(C)c1nc([C@H]2C[C@@H](S(=O)(=O)c3cccc(C(F)(F)F)c3)C2)c[nH]1 [Compound 447, 2-tert-butyl-4-((1S,3S)-3-(3-(trifluoromethyl)phenylsulfonyl)cyclobutyl)-1H-imidazole]"
18,2110 nM,"CC(C)(C)c1nc([C@H]2C[C@H](S(=O)(=O)c3cccc(C(F)(F)F)c3)C2)c[nH]1 [Compound 448, 2-tert-butyl-4-((1R,3R)-3-(3-(trifluoromethyl)phenylsulfonyl)cyclobutyl)-1H-imidazole]"

row,Compound,IC50
1,"4-(trifluoromethyl)-N-((1R,4R)-4- ((3- (trifluoromethyl)phenylsulfonyl) methyl)cyclohexyl)picolinamide [Compound 103]",460 nM
